Source: US12083101B2, “Biaryl derivatives as YAP/TAZ-TEAD protein-protein interaction inhibitors” (Novartis AG, priority 2020, dated 2024)

Biological target: Avi-humanTEAD4 217-434 / Cy5 labeled humanYAP 60-100 (Homo sapiens (Human), UniProt Q15561)
Assay: TR-FRET YAP-TEAD4 in-vitro biochemical assay
Format: binding
Conditions: 1 nM Avi-humanTEAD4 217-434, 20 nM Cy5-humanYAP 60-100, 1 h room temperature
Experimental: N-terminus Cy5 labeled humanYAP^60-100 (20 nM) was then added to this preparation. Compounds were dissolved at 10 mM in 100% DMSO and serial dilutions were made in 100% DMSO. The diluted compound solutions were incubated in white 384-well plates (Greiner Bio-One) for 1 h at room temperature with the above described mix. The final DMSO concentration present in the assay was 1%. […] The IC50 values were estimated by fitting the data by nonlinear fit regression (GraphPad Prism).

Avi-humanTEAD4 217-434 / Cy5 labeled humanYAP 60-100, sequence (Q15561 217-434): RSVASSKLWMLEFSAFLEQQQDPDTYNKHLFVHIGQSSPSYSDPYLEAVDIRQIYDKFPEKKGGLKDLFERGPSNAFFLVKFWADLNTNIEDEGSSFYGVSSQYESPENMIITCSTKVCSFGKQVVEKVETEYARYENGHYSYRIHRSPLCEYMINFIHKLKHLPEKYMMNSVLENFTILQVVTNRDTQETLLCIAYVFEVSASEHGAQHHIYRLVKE

Row | Structure (SMILES) | IC50 [µM]
1 | CNC(=O)c1cnc(O)c(F)c1-c1c(Cl)c(F)cc2c1C[C@](c1ccccc1)([C@@H]1CCCN1)O2 [Example 157, 4-((2S,4S)-5-chloro-6-fluoro-2-phenyl-2-((S)-pyrrolidin-2-yl)-2,3-dihydrobenzofuran-4-yl)-5-fluoro-6-hydroxy-N-methylnicotinamide] | 0.075
2 | NC(=O)c1ccc(OC(F)F)c(F)c1-c1c(Cl)c(F)cc2c1C[C@@](CN[C@H]1C[C@H](F)C1)(c1ccccc1)O2 (atropisomer, axis not shown) [Example 82, 2-((2S,4S)-5-chloro-6-fluoro-2-(((trans-3-fluorocyclobutyl)amino)methyl)-2-phenyl-2,3-dihydrobenzofuran-4-yl)-4-(difluoromethoxy)-3-fluorobenzamide] | 0.119
3 | NCCOc1cccc(F)c1-c1c(Cl)ccc2c1C[C@](CN)(c1ccccc1)O2 [Example 3b, 2-(2-((2R,4R)-2-(aminomethyl)-5-chloro-2-phenyl-2,3-dihydrobenzofuran-4-yl)-3-fluorophenoxy)ethanamine] | 18
4 | CC(=O)N1CCO[C@@H](COc2ccc(C(N)=O)c(-c3c(Cl)ccc4c3C[C@@](CN)(c3ccccc3)O4)c2F)C1 (atropisomer, axis not shown) [Example 17, 4-(((R)-4-acetylmorpholin-2-yl)methoxy)-2-((2S,4S)-2-(aminomethyl)-5-chloro-2-phenyl-2,3-dihydrobenzofuran-4-yl)-3-fluorobenzamide] | 0.013
5 | NC[C@@]1(c2ccccc2)Cc2c(cc(F)c(Cl)c2-c2c(C(N)=O)ccc(OCCC(F)F)c2F)O1 (atropisomer, axis not shown) [Example 41, 2-((2S,4S)-2-(aminomethyl)-5-chloro-6-fluoro-2-phenyl-2,3-dihydrobenzofuran-4-yl)-4-(3,3-difluoropropoxy)-3-fluorobenzamide] | 0.089
6 | CC1(NC[C@@]2(c3ccccc3)Cc3c(cc(F)c(Cl)c3-c3c(C(N)=O)ccc(OC(F)F)c3F)O2)CC1 (atropisomer, axis not shown) [Example 76, 2-((2S,4S)-5-chloro-6-fluoro-2-(((1-methylcyclopropyl)amino)methyl)-2-phenyl-2,3-dihydrobenzofuran-4-yl)-4-(difluoromethoxy)-3-fluorobenzamide] | 0.05
7 | CNC(=O)[C@H]1CC[C@@H](NC[C@@]2(c3ccccc3)Cc3c(ccc(Cl)c3-c3c(F)cccc3C(N)=O)O2)CC1 (relative stereo) [Example 139b, 2-((2S,4S)-5-chloro-2-((((cis)-4-(methylcarbamoyl)cyclohexyl)amino)methyl)-2-phenyl-2,3-dihydrobenzofuran-4-yl)-3-fluorobenzamide] | 0.011
8 | CC(C)(C)NC[C@@]1(c2ccccc2)Cc2c(cc(F)c(Cl)c2-c2c(C(N)=O)ccc(OC(F)F)c2F)O1 (atropisomer, axis not shown) [Example 73, 2-((2S,4S)-2-((tert-butylamino)methyl)-5-chloro-6-fluoro-2-phenyl-2,3-dihydrobenzofuran-4-yl)-4-(difluoromethoxy)-3-fluorobenzamide] | 0.014
9 | NC(=O)c1ccc(OC(F)F)c(F)c1-c1c(Cl)c(F)cc2c1C[C@@](CNCC1CC1)(c1ccccc1)O2 (atropisomer, axis not shown) [Example 50, 2-((2S,4S)-5-Chloro-2-(((cyclopropylmethyl)amino)methyl)-6-fluoro-2-phenyl-2,3-dihydrobenzofuran-4-yl)-4-(difluoromethoxy)-3-fluorobenzamide] | 0.03
10 | CN(C)C(=O)CN1CCC(NC[C@@]2(c3ccccc3)Cc3c(cc(F)c(Cl)c3-c3c(C(N)=O)ccc(OC(F)F)c3F)O2)CC1 (atropisomer, axis not shown) [Example 60, 2-((2S,4S)-5-chloro-2-(((1-(2-(dimethylamino)-2-oxoethyl)piperidin-4-yl)amino)methyl)-6-fluoro-2-phenyl-2,3-dihydrobenzofuran-4-yl)-4-(difluoromethoxy)-3-fluorobenzamide] | 0.02
11 | NC(=O)c1ccc(OC(F)F)c(F)c1-c1c(Cl)c(F)cc2c1C[C@@](CNCCN1CCCC1=O)(c1ccccc1)O2 (atropisomer, axis not shown) [Example 78, 2-((2S,4S)-5-chloro-6-fluoro-2-(((2-(2-oxopyrrolidin-1-yl)ethyl)amino)methyl)-2-phenyl-2,3-dihydrobenzofuran-4-yl)-4-(difluoromethoxy)-3-fluorobenzamide] | 0.16
12 | COc1ccc(C(=O)NC2CC2)c(-c2c(Cl)ccc3c2C[C@@](CN)(c2ccccc2)O3)c1F (atropisomer, axis not shown) [Example 23, 2-((2S,4S)-2-(aminomethyl)-5-chloro-2-phenyl-2,3-dihydrobenzofuran-4-yl)-N-cyclopropyl-3-fluoro-4-methoxybenzamide] | 0.009
13 | C[C@]1(NC[C@@]2(c3ccccc3)Cc3c(cc(F)c(Cl)c3-c3c(C(N)=O)ccc(OC(F)F)c3F)O2)CC[C@H](O)CC1 (atropisomer, axis not shown) [Example 84, 2-((2S,4S)-5-chloro-6-fluoro-2-((((trans)-4-hydroxy-1-methylcyclohexyl)amino)methyl)-2-phenyl-2,3-dihydrobenzofuran-4-yl)-4-(difluoromethoxy)-3-fluorobenzamide] | 0.041

The next molecules have a lower IC50 than those just listed; values first:

Row | IC50 [µM] | Structure (SMILES)
14 | 0.004 | CO[C@H]1c2c(cc(F)c(Cl)c2-c2c(C(N)=O)ccc(OC(F)F)c2F)O[C@]1(CN[C@H]1CC[C@@H](O)CC1)c1ccccc1 (relative stereo) [Example 102b, 2-((2S,3S,4S)-5-chloro-6-fluoro-2-((((cis)-4-hydroxycyclohexyl)amino)methyl)-3-methoxy-2-phenyl-2,3-dihydrobenzofuran-4-yl)-4-(difluoromethoxy)-3-fluorobenzamide]
15 | 0.002 | COCCOc1ncc(C(N)=O)c(-c2c(Cl)c(F)cc3c2[C@H](C)[C@@](CN)(c2ccccc2)O3)c1F (atropisomer, axis not shown) [Example 108, 4-((2S,3S,4S)-2-(aminomethyl)-5-chloro-6-fluoro-3-methyl-2-phenyl-2,3-dihydrobenzofuran-4-yl)-5-fluoro-6-(2-methoxyethoxy)nicotinamide]
16 | 0.002 | C[C@H]1c2c(cc(F)c(Cl)c2-c2c(C(N)=O)ccc(OC(F)F)c2F)O[C@]1(CN)c1ccccc1 (atropisomer, axis not shown) [Example 105, 2-((2S,3S,4S)-2-(Aminomethyl)-5-chloro-6-fluoro-3-methyl-2-phenyl-2,3-dihydrobenzofuran-4-yl)-4-(difluoromethoxy)-3-fluorobenzamide]
17 | 0.002 | C[C@]1(O)CC[C@H](NC[C@@]2(c3ccccc3)Cc3c(cc(F)c(Cl)c3-c3c(C(N)=O)ccc(OCc4ncccn4)c3F)O2)CC1 (atropisomer, axis not shown) [Example 71a, 2-((2S,4S)-5-chloro-6-fluoro-2-((((trans)-4-hydroxy-4-methylcyclohexyl)amino)methyl)-2-phenyl-2,3-dihydrobenzofuran-4-yl)-3-fluoro-4-(pyrimidin-2-ylmethoxy)benzamide]
18 | 0.005 | NC[C@]1(c2ccccc2)Oc2cc(F)c(Cl)c(-c3c(C(N)=O)ccc(OCCO)c3F)c2[C@@H]1O (atropisomer, axis not shown) [Example 98, 2-((2S,3S,4S)-2-(Aminomethyl)-5-chloro-6-fluoro-3-hydroxy-2-phenyl-2,3-dihydrobenzofuran-4-yl)-3-fluoro-4-(2-hydroxyethoxy)benzamide]
19 | < 0.001 | COCCOc1ccc(C(N)=O)c(-c2c(Cl)c(F)cc3c2[C@H](C)[C@@](CN[C@H]2CC[C@](C)(O)CC2)(c2ccccc2)O3)c1F (atropisomer, axis not shown) [Example 116a, 2-((25,35,4S)-5-chioro-6-fluoro-2-((((trans)-4-hydroxy-4-methylcyclohexyl)amino)methyl)-3-methyl-2-phenyl-2,3-dihydrobenzofuran-4-yl)-3-fluoro-4-(2-methoxyethoxy)benzamide]
20 | 0.003 | C[C@]1(O)CC[C@H](NC[C@@]2(c3ccccc3)Cc3c(cc(F)c(Cl)c3-c3c(C(N)=O)ccc(OC[C@H]4CCCO4)c3F)O2)CC1 (atropisomer, axis not shown) [Example 67b, 2-((2S,4S)-5-chloro-6-fluoro-2-((((trans)-4-hydroxy-4-methylcyclohexyl)amino)methyl)-2-phenyl-2,3-dihydrobenzofuran-4-yl)-3-fluoro-4-(((R)-tetrahydrofuran-2-yl)methoxy)benzamide]
21 | 0.002 | NC(=O)c1ccc(OC(F)F)c(F)c1-c1c(Cl)c(F)cc2c1C[C@@](CNC1CCC(O)(CF)CC1)(c1ccccc1)O2 (single isomer, unassigned) [Example 55b]
22 | 0.006 | CS(=O)(=O)NC1CCC(NC[C@@]2(c3ccccc3)Cc3c(cc(F)c(Cl)c3-c3c(C(N)=O)ccc(OC(F)F)c3F)O2)CC1 (single isomer, unassigned) [Example 57b]
23 | 0.007 | CO[C@H]1CC[C@@H](NC[C@]2(c3ccccc3)Oc3cc(F)c(Cl)c(-c4c(C(N)=O)ccc(OC(F)F)c4F)c3[C@@H]2O)CC1 (relative stereo) [Example 136a, 2-((2S,3S,4S)-5-Chloro-6-fluoro-3-hydroxy-2-((((cis)-4-methoxycyclohexyl)amino)methyl)-2-phenyl-2,3-dihydrobenzofuran-4-yl)-4-(difluoromethoxy)-3-fluorobenzamide]
24 | 0.004 | NC(=O)c1ccc(OC(F)F)c(F)c1-c1c(Cl)c(F)cc2c1C[C@@](CNC1CC3(CC(O)C3)C1)(c1ccccc1)O2 (stereo partly drawn) [Example 85a, 2-((2S,4S)-5-Chloro-6-fluoro-2-(((6-hydroxyspiro[3.3]heptan-2-yl)amino)methyl)-2-phenyl-2,3-dihydrobenzofuran-4-yl)-4-(difluoromethoxy)-3-fluorobenzamide]
